Source: US8889667B2 (Agios Pharmaceuticals, Inc, priority 2010, dated 2014)

What follows are molecules tested against PKM2 (Homo sapiens, UniProt P14618) (assay: PKM2 Assay (activation, LDH-coupled, absorbance at 340 nm)). Settings: Table 4.
Format: biochemical
Method in brief: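 Human PKM2 (50 ng/well) was preincubated with compound and coupling mix for 30 min at 4 °C without ADP. Reactions were then started with ADP (0.7 mM) alongside PEP 0.15 mM, NADH 180 μM and LDH, in Tris pH 7.5/KCl/MgCl2/DTT/BSA buffer. A340 was followed at 25 °C and activation reported as AC50.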

PKM2, sequence (P14618 whole entry): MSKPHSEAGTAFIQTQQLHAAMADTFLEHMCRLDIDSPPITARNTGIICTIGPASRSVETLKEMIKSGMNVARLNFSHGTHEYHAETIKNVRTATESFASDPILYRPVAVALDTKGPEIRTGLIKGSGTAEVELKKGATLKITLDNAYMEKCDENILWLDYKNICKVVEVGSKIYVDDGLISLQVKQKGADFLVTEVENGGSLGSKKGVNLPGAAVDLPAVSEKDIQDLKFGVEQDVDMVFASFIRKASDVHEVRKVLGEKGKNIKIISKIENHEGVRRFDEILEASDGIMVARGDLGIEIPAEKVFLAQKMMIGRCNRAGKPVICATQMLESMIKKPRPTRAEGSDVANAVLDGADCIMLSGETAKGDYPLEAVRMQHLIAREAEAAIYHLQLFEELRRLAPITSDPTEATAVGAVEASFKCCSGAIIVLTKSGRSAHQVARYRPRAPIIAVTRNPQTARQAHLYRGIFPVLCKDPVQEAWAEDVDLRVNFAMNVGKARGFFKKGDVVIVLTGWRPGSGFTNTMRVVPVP

| Compound | AC50 |
| --- | --- |
| CC1CN(Cc2cc(F)cc(F)c2F)CC(C)N1C(=O)c1ccc(NS(=O)(=O)c2cccc3cccnc23)cc1 (centres unmarked) [Compound 200, N-(4-(2,6-dimethyl-4-(2,3,5-trifluorobenzyl)piperazine-1-carbonyl)phenyl)quinoline-8-sulfonamide] | < 100 nM |
| CC(c1cc(F)c(F)c(F)c1)N1CCN(C(=O)c2ccc(NS(=O)(=O)c3cccc4cccnc34)cc2)[C@H](C)C1 (stereo partly drawn) [Compound 158, N-(4-((2R)-2-methyl-4-(1-(3,4,5-trifluorophenyl)ethyl)piperazine-1-carbonyl)phenyl)quinoline-8-sulfonamide] | 100 to 500 nM |
| C[C@@H]1CN(CC2CCCCC2)CCN1C(=O)c1ccc(NS(=O)(=O)c2cccc3cccnc23)cc1 [Compound 151, (R)—N-(4-(4-(cyclohexylmethyl)-2-methylpiperazine-1-carbonyl)phenyl)quinoline-8-sulfonamide] | < 100 nM |
| COc1cccc(CN2CCN(C(=O)c3ccc(NS(=O)(=O)c4cccc5cccnc45)cc3)[C@@H](C)C2)c1OC [Compound 146, (S)—N-(4-(4-(2,3-dimethoxybenzyl)-2-methylpiperazine-1-carbonyl)phenyl)quinoline-8-sulfonamide] | 1000 to 20000 nM |
| CC1CN(Cc2cc(F)c(F)c(F)c2)CC(C)N1C(=O)c1ccc(NS(=O)(=O)c2cccc3cccnc23)cc1 (centres unmarked) [Compound 201, N-(4-(2,6-dimethyl-4-(3,4,5-trifluorobenzyl)piperazine-1-carbonyl)phenyl)quinoline-8-sulfonamide] | 100 to 500 nM |
| CC1CN(Cc2ccc(F)cc2)CC(C)N1C(=O)c1ccc(NS(=O)(=O)c2cccc3cccnc23)cc1 (centres unmarked) [Compound 196, N-(4-(4-(4-fluorobenzyl)-2,6-dimethylpiperazine-1-carbonyl)phenyl)quinoline-8-sulfonamide] | < 100 nM |
| CC(c1c(F)ccc(F)c1F)N1CCN(C(=O)c2ccc(NS(=O)(=O)c3cccc4cccnc34)cc2)[C@@H](C)C1 (stereo partly drawn) [Compound 192, N-(4-((2S)-2-methyl-4-(1-(2,3,6-trifluorophenyl)ethyl)piperazine-1-carbonyl)phenyl)quinoline-8-sulfonamide] | 100 to 500 nM |
| CC(c1ccccc1F)N1CCN(C(=O)c2ccc(NS(=O)(=O)c3cccc4cccnc34)cc2)[C@H](C)C1 (some centres unmarked) [Compound 183] | < 100 nM |
| CC(c1ccc(F)cc1)N1CCN(C(=O)c2ccc(NS(=O)(=O)c3cccc4cccnc34)cc2)[C@@H](C)C1 (some centres unmarked) [Compound 171] | 100 to 500 nM |
| CC(c1c(F)cccc1F)N1CCN(C(=O)c2ccc(NS(=O)(=O)c3cccc4cccnc34)cc2)[C@H](C)C1 (stereo partly drawn) [Compound 159, N-(4-((2R)-4-(1-(2,6-difluorophenyl)ethyl)-2-methylpiperazine-1-carbonyl)phenyl)quinoline-8-sulfonamide] | 100 to 500 nM |
| C[C@H]1CN(Cc2c(F)cc(F)cc2F)CCN1C(=O)c1ccc(NS(=O)(=O)c2cccc3cccnc23)cc1Cl [Compound 188, (S)—N-(3-chloro-4-(2-methyl-4-(2,4,6-trifluorobenzyl)piperazine-1-carbonyl)phenyl)quinoline-8-sulfonamide] | 500 to 1000 nM |
| CC1CN(Cc2cc(F)cc(F)c2)CC(C)N1C(=O)c1ccc(NS(=O)(=O)c2cccc3cccnc23)cc1 (centres unmarked) [Compound 194, N-(4-(4-(3,5-difluorobenzyl)-2,6-dimethylpiperazine-1-carbonyl)phenyl)quinoline-8-sulfonamide] | < 100 nM |

Same assay, conditions: Table 5

| Compound | AC50 |
| --- | --- |
| O=C(c1ccc(NS(=O)(=O)c2cccc3cccnc23)cc1F)N1CCN(CC2CCOCC2)CC1 [Compound 436, N-(3-fluoro-4-(4-((tetrahydro-2H-pyran-4-yl)methyl)piperazine-1-carbonyl)phenyl)quinoline-8-sulfonamide] | < 100 nM |
| O=C(c1ccc(NS(=O)(=O)c2cccc3cccnc23)c(OC(F)(F)F)c1)N1CCN(Cc2ccc(F)c(Cl)c2)CC1 [Compound 376, N-(4-(4-(3-chloro-4-fluorobenzyl)piperazine-1-carbonyl)-2-(trifluoromethoxy)phenyl)quinoline-8-sulfonamide] | 100 to 500 nM |
| O=C(OCC1CCCO1)N1CCN(C(=O)c2ccc(NS(=O)(=O)c3cccc4cccnc34)c(OC(F)(F)F)c2)CC1 (centres unmarked) [Compound 316, (tetrahydrofuran-2-yl)methyl-4-(4-(quinoline-8-sulfonamido)-3-(trifluoromethoxy)benzoyl)piperazine-1-carboxylate] | 1000 to 20000 nM |
| O=C(c1ccc(NS(=O)(=O)c2cccc3cccnc23)cc1Cl)N1CCN(Cc2ccc(Cl)c(F)c2)CC1 [Compound 432, N-(3-chloro-4-(4-(4-chloro-3-fluorobenzyl)piperazine-1-carbonyl)phenyl)quinoline-8-sulfonamide] | 100 to 500 nM |
| O=C(c1ccc(NS(=O)(=O)c2cccc3cccnc23)cc1)N1CCN(C(=O)c2ncc[nH]2)CC1 [Compound 354, N-(4-(4-(1H-imidazole-2-carbonyl)piperazine-1-carbonyl)phenyl)quinoline-8-sulfonamide] | < 100 nM |
| COc1ncccc1CN1CCN(C(=O)c2ccc(NS(=O)(=O)c3cccc4cccnc34)c(OC(F)(F)F)c2)CC1 [Compound 368, N-(4-(4-((2-methoxypyridin-3-yl)methyl)piperazine-1-carbonyl)-2-(trifluoromethoxy)phenyl)quinoline-8-sulfonamide] | 100 to 500 nM |
| O=C(c1ccc(NS(=O)(=O)c2cccc3cccnc23)cc1F)N1CCN(Cc2cc(F)c(F)c(F)c2)CC1 [Compound 423, N-(3-fluoro-4-(4-(3,4,5-trifluorobenzyl)piperazine-1-carbonyl)phenyl)quinoline-8-sulfonamide] | < 100 nM |
| O=C(c1ccc(NS(=O)(=O)c2cccc3cccnc23)cc1Cl)N1CCN(CC2CCCC2)CC1 [Compound 428, N-(3-chloro-4-(4-(cyclopentylmethyl)piperazine-1-carbonyl)phenyl)quinoline-8-sulfonamide] | 100 to 500 nM |
| O=C(c1ccc(NS(=O)(=O)c2cccc3cccnc23)cc1)N1CCN(Cc2cn[nH]c2)CC1 [Compound 385, N-(4-(4-((1H-pyrazol-4-yl)methyl)piperazine-1-carbonyl)phenyl)quinoline-8-sulfonamide] | < 100 nM |
| O=C(c1ccc(NS(=O)(=O)c2cccc3cccnc23)c(OC(F)(F)F)c1)N1CCN(CCCc2ccccc2)CC1 [Compound 389] | 500 to 1000 nM |
| CC(c1c(F)ccc(F)c1F)N1CCN(C(=O)c2ccc(NS(=O)(=O)c3cccc4cccnc34)cc2)CC1 (centres unmarked) [Compound 404, N-(4-(4-(1-(2,3,6-trifluorophenyl)ethyl)piperazine-1-carbonyl)phenyl)quinoline-8-sulfonamide] | < 100 nM |
| O=C(c1ccc(NS(=O)(=O)c2cccc3cccnc23)cc1Cl)N1CCN(Cc2cc(F)cc(F)c2)CC1 [Compound 426, N-(3-chloro-4-(4-(3,5-difluorobenzyl)piperazine-1-carbonyl)phenyl)quinoline-8-sulfonamide] | < 100 nM |
| O=C(c1ccc(NS(=O)(=O)c2cccc3cccnc23)cc1Cl)N1CCN(Cc2ccc(F)cc2)CC1 [Compound 431, N-(3-chloro-4-(4-(4-fluorobenzyl)piperazine-1-carbonyl)phenyl)quinoline-8-sulfonamide] | < 100 nM |
| O=C(c1ccc(NS(=O)(=O)c2cccc3cccnc23)c(OC(F)(F)F)c1)N1CCN(Cc2cccc(Cl)c2)CC1 [Compound 379, N-(4-(4-(3-chlorobenzyl)piperazine-1-carbonyl)-2-(trifluoromethoxy)phenyl)quinoline-8-sulfonamide] | 100 to 500 nM |
